Assays:
[1] = tested on: MDA-MB-435S xenograft; assay: MDA-MB-435S xenograft, multiple dose regimen; assay type: in vivo, Nu/Nu mice; conditions: for tumor free mice: multiple intravenous injections
Experimental: In order to determine the minimal effective dose necessary to reduce MDA-MB-435S xenograft weights in a multiple dose regimen, Nu/Nu female mice, outbred strain, age 8 weeks (Charles River), were injected (s.c.) into the interscapular region with a MDA-MB-435S (passage # 253)/Matrigel suspension (2×10^6 cells/mouse) as previously described above. Phor 18-LHRH (338613) (ID: 338613 lot #P080401) (0.002, and 0.2 mg/kg) were reconstituted in USP saline prior to dosing. The doses were given as a single bolus intravenous injection via lateral tail vein on days 15, 16, 17, 20, 21, 22, 23, 27, 28, 29, 30, 33, 34, 35, 36, 37, 38, 40, 41, 42 after tumor cell inoculation. Saline injections served as control groups.
Each treatment group consisted of 16 mice. During the entire study tumor volumes were recorded twice weekly. Final necropsy was conducted on day 45 after tumor cell injection. […] due to occlusion of the tail vein in most mice. At study endpoint body weight, tumor weights were determined and fixed in phosphate buffered 10% formalin.

[2] = tested on: immune cells in ascites; assay: Immune cell profiling (FACS) of ID8 ascites; assay type: in vivo, C57BL/6 mice
Experimental: Immune Profiling Assay—Immunophenotypic analyses of splenocytes and single cell suspensions from tumors were assessed by flow cytometry. Abs to stain for MDSCs were CD11b-APC (clone M1/70; BD Biosciences), Ly6G-FITC (clone 1A8; BD Biosciences) and Ly6C-PE (clone AL-21; BD Biosciences). For T-cell activation markers, cells were stained with Ab specific for CD4-PE-Cy7 (clone RM4-5; BD Biosciences), CD8-PE-Cy7 (clone 53-6.7; BD Biosciences), CD62L-PE (clone MEL-14; BD Biosciences) and CD44-FITC (clone IM7; Biolegend). Cells were incubated on ice for 30 min, washed and fixed in phosphate buffered saline (PBS) containing 1% formalin for flow cytometric analysis on an LSRII flow cytometer (BD Biosciences).
Immune cell profiling was conducted on ascites (N=3) and tumor tissue (N=3) by processing the samples by the following method and analyzed through Fluorescent Activated Cell Sorting (FACS), see Table 8. Cells were incubated for 30 minutes on ice, washed and fixed in phosphate buffered saline containing 1% formalin for flow cytometric analysis on an LSRII flow cytometer.

[3] = tested on: IG10; assay: Cytotoxicity in IG10 murine ovarian cancer cells (24 h); assay type: cell-based; conditions: IG10, 24 h; read-out: In vitro activity (IC50)
Experimental: Murine ovarian cancer cell lines (ID8, IG10, IF5, and 2Cl2) were grown in RPMI 1640 media with 10% Fetal Bovine Serum. Cells were typically seeded (3000 cells per well) into 96 well plates and media was replaced after 48 hours of incubation. […] Phor18-LHRH was provided in lyophilized form was dissolved in saline and added to cells. The duration of incubation was 24 h at 37° C. Cell viability was assessed after 24 hours using a luminometric assays (Promega, CellTiter-0Glo 2.0, G9243). Controls contained saline or 0.1% triton as reference for 0 and 100% cell death, respectively.
Data were processed and analyzed using GraphPad Prism version 7.00 for Windows (GraphPad Software, San Diego California). Statistical analysis for significance was determined by a two-tailed Student's T-test. Each study was conducted to achieve an […] of at least 6.
In vitro activities were expressed as IC50 values for each cell line, time point and compound tested that were calculated using the Hill equation (Graph Pad Prizm software).

[4] = tested on: IG10 murine ovarian carcinoma; assay: Orthotopic IG10 murine ovarian carcinoma syngeneic model; assay type: in vivo, C57BL/6 mice
Experimental: C57BL/6 female mice were injected orthotopically with luciferase labeled IG10 murine ovarian cancer cell line (1x10^6 cells). Mice were monitored for tumor take using a luminescent imaging system. […] Each treatment and control group consisted of 10 mice. At necropsy on day 28, ascites fluids were removed and measured, and tumors were removed and weighed.
(§1) Significance between treatment groups was assessed using Wilcoxon signed Rank test analysis and ANOVA.

[5] = tested on: ID8 murine ovarian carcinoma; assay: Orthotopic ID8 murine ovarian carcinoma syngeneic model; assay type: in vivo, C57BL/6 mice
Experimental: Ovarian Cancer Orthotopic Syngeneic Mouse model—Eight-to 12-week-old female C57BL/6 mice were purchased from Taconic Farms, ID8 or IG10 cells at a concentration off 2×10^6 cells/0.2 mL per mouse were injected into the intraperitoneal cavity of C57BL/6. All mouse studies were approved by the Institutional Animal Care and Use Committee and were cared for in accordance with guidelines set forth by the American Association for Accreditation of Laboratory Animals. After cancer cell injection, mice were randomly divided into four treatment groups: 1) untreated control, 2) PD-L1 antibody (200 μg/kg intraperitoneally twice a week), 3) EP-100 (0.2 mg/kg intravenously twice a week) and 4) PD-L1 antibody plus EP-100. Treatment was initiated ten days after cancer cell injection into the intraperitoneal cavity.
C57BL/6 female mice were injected orthotopically with luciferase labeled ID8 (ID8-L) murine ovarian cancer cell line (1×10^6 cells). Mice were monitored for tumor take using a luminescent imaging system. Treatments started on day 7 after tumor cell injection and continued on days 9, 12, 16, 19, 22, and 26 (FIG. 17A). […] Each treatment and control group consisted of 10 mice. At necropsy on day 28, ascites fluids were removed and measured, and tumors were removed and weighed.
as §1

[6] = tested on: MDA-MB-435S.luc xenograft; assay: MDA-MB-435S.luc xenograft, βCG fusion constructs; assay type: in vivo, Nu/Nu mice; conditions: vs baseline and saline controls
Experimental: Female Nu/Nu mice were injected subcutaneously with a MDA-MB-435S.luc/Matrigel HC suspension (1×10^6 cells). In brief, treatment started on day 13 after tumor cell injection and continued on day 19 and 25. […] The doses for weekly injections were 5, 1 and 0.01 mg/kg body weight, given as a bolus single injection.
The effect of cytolytic peptide injections on the primary tumors is illustrated in FIG. 8. In brief, the FIGS. 8A-8C show tumor volume during the course of the study for each individual peptide. FIGS. 8D-8G show tumor characteristics at necropsy; tumor volume (D), tumor weight (E), live tumor cells (F), tumor conditions (G).
Treatment efficacy was calculated as difference between measurements at the beginning of treatment compared to the measurement at the end of study (FIG. 8H-8I). […] Viability of cells in the tumors was determined at the end of the study when tumors were measured for luciferase activity.

## KFAKFAKKFAKFAKKFAKQHWSYGLRPG [Phor18-LHRH]
[1]; 0.002 mg/kg
  tumor free mice: 6/23
[1]; 0.2 mg/kg
  tumor free mice: 1/20
[1]; 0.002 and 0.2 mg/kg, multiple injection regimen
  histological examination of H&E stained tumors: eradication of tumor cells
[2]
  increase of CD8+ T/Treg ratio: 7 fold
[2]; % of CD45+ cells, controls 0.62±0.08%
  Monocytic myeloid suppressor cells (mMDSC): 0.21±0.01%
[2]; % of CD45+ cells, controls 1.9±0.3%
  CD8+ T cells: 8.9±2.4%
[2]; % of CD45+ cells, controls 9.8±1.8%
  B cells: 1.5±0.14%
[2]; % of CD45+ cells, controls 10.3±0.8%
  Natural killer (NK) cells: 10.2±0.08%
[2]; % of CD45+ cells, controls 18.5±1.1%
  Dendritic cells (DC): 15.1±0.2%
[2]; % of CD45+ cells, controls 23.8±5.1%
  Macrophages: 25.6±0.7%
[2]; Mean±SEM, controls 10.5±1.8%
  CD45+ cell fraction of life cells: 15.6±2.1%
[2]; controls 2.6±0.6
  ratio of CD8+ T cells to regulatory T cells: 17.32±4.1
[3]
  IC50: 1030 nM
[4]
  relative reduction of ascites volumes: 60.2%
[4]; Mean±SEM, N=10, controls 1.04±0.09 g
  tumor weights at necropsy: 0.45 ± 0.08 g
[4]; Mean±SEM, N=10, vehicle 9.06±1.3 ml
  ascites volumes: 3.6 ± 0.7 mL
[5]; ID8
  reduction of ascites: 1.5 fold
  reduction of live tumor size: 2.1 fold
  reduction of tumor weights: 3 fold
  relative reduction of ascites volumes: 35.5%
[5]; ID8-luciferase, mean±SD, start 9.2±1.2×10^4
  luminescence counts of tumor at the end of the study: 88.6±21.5 ×10^4
[5]; ID8, Mean±SEM, N=10, controls 1.06±0.08 g
  tumor weights at necropsy: 0.49 ± 0.07 g
[5]; ID8, Mean±SEM, N=10, vehicle 12.26±0.6 ml
  ascites volumes: 8.0 ± 0.7 mL

## KFAKFAKKFAKFAKKFAK [Phor18, reference compound]
[6]
  tumor volume: ineffective in reducing the xenograft volume
